Consider one compound from US10894777B2, “TG2 inhibitor piperazine compounds and uses thereof” (UNIVERSITY OF OTTAWA, priority 2016, dated 2021).

The experiment has as its system ΔNp63α. Put plainly: ΔNp63α level immunoblot, YAP1-siRNA SCC-13 cells. Type of experiment: cell-based, human. The settings on record: 1 μM lactacystin, 24 h. The protocol: In (A), cells were grown in spheroid medium in monolayer or spheroid culture and after 10 d harvested for immunoblot. In (B), SCC13-Control-shRNA and SCC13-TG2-shRNA2 cells were grown in monolayer culture in spheroid medium and lysates were collected for immunoblot detection of the indicated epitopes. […] In (F), SCC13-Control-shRNA and SCC13-TG2-shRNA2 cells were grown as monolayers in spheroid medium and lysates collected at 6 d for marker detection. In (G), SCC-13 cells were double-electroporated with Control- or TG2-siRNA and given 24 h to recover before being seeded on chamber slides. The following day, cells were fixed in 4% paraformaldehyde, stained with anti-YAP1 and appropriate secondary antibody, and co-stained with DAPI. In (H), SCC-13 cells, double-electroporated with Control- or TG2-siRNA, were grown in spheroid medium for 48 h prior to extracts being prepared for assay of ΔNp63α mRNA by qRT-PCR. In (I), SCC-13 cells were grown as spheroids and at day 8 lysates were collected for immunoprecipitation/immunoblot. In (J), SCC-13 cells were double-electroporated with Control- or YAP-siRNA followed by treatment with 1 μM lactacystin in monolayer culture. Extracts were prepared after an additional 24 h. In (K), SCC-13 cells were double-electroporated with Control- or YAPsiRNA and after 2 d in monolayer culture extracts were prepared for immunoblot. […]
(A western blot detects proteins with antibodies after separation by electrophoresis.)

For the compound `CC(=O)N[C@@H](CSC(=O)[C@]1([C@@H](O)C(C)C)NC(=O)[C@H](C)[C@@H]1O)C(=O)O` [lactacystin], the “ΔNp63α reduction caused by YAP1-siRNA” value is reported as “partially reversed”.
